Reference: PMC4618636 (Pharmacology Research & Perspectives, 2015)
Where two headings read alike, the source gives them in different places.

Tests used:
CYP3A4 [1] = settings: in vivo induction value used for the RIS calibration; cited from earlier work
CYP3A4 [2] = settings: for CYP3A4 Indmax: mean from two experiments; for CYP3A4 % Rif: relative to positive control rifampicin, equation 2
CYP2B6 = settings: for CYP2B6 Indmax: mean from two experiments; for CYP2B6 % PB: relative to positive control phenobarbital, equation 2
CYP1A2 = CYP1A2 preinduction by omeprazole in upcyte hepatocytes; settings: daily 100 μmol/L omeprazole for 3 days

## COc1ccc2[nH]c([S+]([O-])Cc3ncc(C)c(OC)c3C)nc2c1 (stereo not shown) [Omeprazole, omeprazole]
CYP3A4 [1]
  % Decrease in midazolam AUC: 0%
CYP3A4 [2]; upcyte Donor 10-03
  CYP3A4 Indmax: 2.3 fold
  CYP3A4 % Rif: 4%
CYP3A4 [2]; upcyte Donor 151-03
  CYP3A4 Indmax: 3.1 fold
  CYP3A4 % Rif: 34%
CYP3A4 [2]; upcyte Donor 653-03, column headed Ind50 in Table 5
  CYP3A4 Ind50: 5
CYP3A4 [2]; upcyte Donor 653-03
  CYP3A4 Indmax: 1.5 fold
CYP2B6; upcyte Donor 10-03
  CYP2B6 Indmax: 2.0 fold
  CYP2B6 % PB: 31%
CYP2B6; upcyte Donor 151-03
  CYP2B6 Indmax: No induction
  CYP2B6 % PB: No induction
CYP2B6; upcyte Donor 653-03
  CYP2B6 Indmax: 2.2 fold
  CYP2B6 % PB: 56%
CYP1A2; Donor 10-03
  induced CYP1A2 activity: 57.1 ± 17.1 pmol/min/mg protein
CYP1A2; Donor 151-03
  induced CYP1A2 activity: 83.8 ± 21.7 pmol/min/mg protein
CYP1A2; Donor 422A-03
  induced CYP1A2 activity: 205.0 ± 44.9 pmol/min/mg protein
